Results taken from patent US11617740B2, “Chemical inhibitors of Mycobacterium tuberculosis DosRST signaling and persistence” (priority 2017, dated 2023).
Values joined by “and” are separate entries in the source; they are usually repeats but may differ in a detail not shown here. Equal values may be shown once. “Also recorded” adds a separate entry of the source.

What was measured:
WT DosS heme [1] = biological target: T1, WT DosS heme (Mycobacterium tuberculosis, UniProt P9WGK3); conditions: identical conditions, gradual shift to oxidized state; cited from earlier work
WT DosS heme [2] = biological target: T1, WT DosS heme; assay: UV-visible spectroscopy of DosS heme; assay type: biochemical; conditions: for position of DosS Soret peak after treatment: DTN-reduced DosS (430 nm), 100 μM
DosR regulon = assay type: cell-based; conditions: ΔdosR mutant, 40 μM, >2-fold; q<0.05
DosS(G117L) = DosS(G117L) (Mycobacterium tuberculosis, UniProt P9WGK3, G117L); assay type: biochemical
DosS(E87L) = DosS(E87L) (Mycobacterium tuberculosis, UniProt P9WGK3, E87L); assay type: biochemical

SMILES | position of DosS Soret peak after treatment (WT DosS heme [2]) | genes downregulated in CDC1551(ΔdosR) background (DosR regulon) [genes] | also measured
C[C@@H]1CC[C@H]2[C@@H](C)C(=O)O[C@@H]3O[C@@]4(C)CC[C@@H]1[C@]32OO4 [artemisinin, reference compound] | – | – | position of DosS Soret peak after treatment (earlier work) (WT DosS heme [1]): 403 nm
[C-]#[O+] [CO, carbon monoxide, reference compound] | 422 nm | – | –
CN(C)CCCN1C(=O)c2cccc3c(Br)ccc(c23)C1=O [HC104A] | – | 171 | effect on DosS UV-visible spectrum / heme redox (WT DosS heme [2]; DTN-reduced DosS, 400 μM HC104A): no change; also recorded: inhibitory activity was not observed; also recorded: no impact on the position of the Soret peak
[C-]#[O+].[C-]#[O+].[C-]#[O+].[C-]#[O+].[C-]#[O+].[C-]#[O+].[Cl][Ru][Cl].[Cl][Ru][Cl] [CORM-2, tricarbonylchlororuthenium(II) dimer, reference compound] | 422 nm | – | –
O=C(Nc1ccno1)Nc1ccc(Cl)cc1Cl [HC106A] | 422 nm and ~420 nm | 51 | change of DosS(G117L) UV-visible spectrum (DosS(G117L)): no change to the overall spectrum; also recorded: did not change; also recorded: promoted HC106A resistance; change of DosS E87L UV-visible spectrum (DosS(E87L)): no change on overall spectrum; position of DosS(E87L) Soret peak after treatment (DosS(E87L)): 422 nm
